Results published in US20110229878A1, “HUMAN CONSENSUS SODIUM-IODIDE SYMPORTER REPRESSOR (NIS-REPRESSOR) BINDING SITE” (priority 2010, published 2011).

What was measured:
[1] = tested on: NIS-repressor; assay: EMSA pattern using KAK1 nuclear extract after epigenetic agents; format: binding, human
Procedure: EMSA: EMSA is carried out as follows: 3 μL nuclear extract, 1 μL end-labeled probe, 1 μL Poly(dI-dC)-Poly(dI-dC) (0.01 U/μL in 100 mM KCl, 20 mM HEPES, pH 8.0), 1 μL Salmon sperm DNA (500 ng/μL in nuclease-free water), 5 μL 4×EMSA buffer (400 mM KCl, 80 mM HEPES, 0.8 mM EDTA, 80% glycerol, 0.5 mM DTT) are mixed and distilled nuclease-free water is added to bring the reaction mix to 18 μL. The mixture is incubated on ice for 30 minutes, followed by addition of 2 μL of loading buffer (1×EMSA buffer, 0.25% Bromophenol Blue). A 7% non-denaturing PAGE gel is pre-run in 0.5×TBE (5.4 g/L Tris base, 2.75 g/L boric acid, 1 mM EDTA, pH 8.) for 30 minutes at 100V. The entire 20 μL EMSA reaction is loaded into one well of the polyacrylamide gel and run at 100V until the Bromophenol Blue dye has migrated to the end of the gel. The gel is dried on DEAE paper using a standard gel dryer and the dried gel is exposed to X-ray film. A retarded signal relative to free end-labeled probe indicates athe presence of a positive protein-probe interaction complex. When un-labeled DNA probe is added in the EMSA reaction mixture, loss of EMSA signal indicates the signal is probe-specific.

[2] = tested on: NIS transcription; conditions: Venkataraman et al. 1999; cited from earlier work
[3] = tested on: chromatin compaction; conditions: previous genomic DNase I digestion studies (Li et al. 2007); cited from earlier work
[4] = tested on: hNIS transcription in KAK1 cells; assay: Endogenous hNIS transcription in KAK1 cells; format: cell-based, human
Text: (§1) Furthermore. […] PJ34 inhibition of PARP1 enzymatic activity may compromise the assembly, stability, or activity of the NIS-repressor protein complex.

[5] = tested on: hNIS transcription in Cal-62 cells; assay: Endogenous hNIS transcription in Cal-62 cells; format: cell-based, human
Text: as §1

[6] = tested on: NIS promoter constructs; assay: Luciferase activity from NIS promoter constructs; format: cell-based, human
Text: as §1

[7] = tested on: hNIS; assay: Endogenous hNIS mRNA / transcription in thyroid cancer cells (cell line not given); format: cell-based, human
Text: Multiple cellular and nuclear factors are reported to be important for hNIS transcription, including: TSH (thyrotropin)/receptor (TSHr) (Riedel, et al. 2001), TTF-1 (Schmitt, et al. 2001), and Pax-8 (Pasca di Magliano, et al. 2000), but there are no clear examples of repressing transcription factors in thyroid cells or thyroid carcinomas. […] We also characterized NIS-repressor and investigated the identities of its components and mechanisms of its activity. This involved defining NRBS-P to a narrower region of hNIS promoter and utilizing it to probe nuclear extract, analyzing the probe-bound proteins with liquid chromatography coupled with tandem mass spectrometry (LC/MS/MS), to characterize NIS-repressor components. […] Pharmacological inhibition of PARP-1 activity with PJ34, a PARP-1 inhibitor, stimulated endogenous hNIS mRNA levels, providing evidence that PARP-1 acts as a negative regulatory factor for hNIS transcription and is a likely component of the NIS-repressor complex.
In summary, a second core sequence in the human sodium-iodine symporter (hNIS) promoter, NRBS-D, which is a binding site for a trans-active transcriptional repressor, NIS-repressor has been defined. […] A known inhibitor of PARP-1 enzymatic activity, PJ34, causes increased endogenous transcription of hNIS in genotypically verified thyroid cancer cells.

[8] = tested on: NIS-repressor (KAK1 nuclear extract); assay: EMSA competition against radiolabeled Probe-A (NRBS-P), KAK1 nuclear extract; format: binding, human; conditions: 60× unlabeled annealed double-stranded oligonucleotide
Text: FIGS. 2A and 2B show the results of EMSA analysis followed by […] to define the core sequence for NRBS-D and cross competition of NRBS-D with NRBS-P. FIG. 2A depicts EMSA using KAK1 nuclear extract probed with radiolabeled SHIFT-4 containing NRBS-D in lanes 2 to 15. Unlabeled (30×) SHIFT-4, 4.1, 4.4, 4.2, 4.3, 4.5, 4.6, 4.7, and Probe-A were included in EMSA reactions in lanes 3, 4, 5, 6, 7, 11, 12, 13, and 15, respectively. The unlabeled (60×) annealed double-stranded oligonucleotides ds-411, ds-412, ds-413, and Comp-1 were added to the EMSA reactions in lanes 8, 9, 10, and 14, respectively. Lane 2 had no additional unlabeled competitor, and lane 1 contained radiolabeled SHIFT-4 probe only. In FIG. 2B, KAK1 nuclear extract was probed with radiolabeled Probe-A. The unlabeled 30× Probe-A, 60× annealed double-stranded Comp-1, and 60× annealed double-stranded ds-414 were added in EMSA reactions in lane 3, 4, and 5, respectively. The arrows point to the probe-specific bands.
EMSA: EMSA is carried out as follows: 3 μL nuclear extract, 1 μL end-labeled probe, 1 μL Poly(dI-dC)-Poly(dI-dC) (0.01 U/μL in 100 mM KCl, 20 mM HEPES, pH 8.0), 1 μL Salmon sperm DNA (500 ng/μL in nuclease-free water), 5 μL 4×EMSA buffer (400 mM KCl, 80 mM HEPES, 0.8 mM EDTA, 80% glycerol, 0.5 mM DTT) are mixed and distilled nuclease-free water is added to bring the reaction mix to 18 μL. […]

Row | Compound | effect on EMSA pattern [1] | NIS transcription [2] | effect on chromatin compaction [3] | other results
1 | Nc1ncn([C@@H]2O[C@H](CO)[C@@H](O)[C@H]2O)c(=O)n1 [5-azacytidine] | did not alter | restore | failed to demonstrate any effect | 
2 | CN(C)CC(=O)Nc1ccc2[nH]c(=O)c3ccccc3c2c1 [PJ34] |  |  |  | endogenous hNIS transcription [4]: stimulated; endogenous hNIS transcription [5]: stimulated; luciferase activity from NIS promoter constructs [6]: effectively stimulated; endogenous transcription of hNIS ([7]; genotypically verified thyroid cancer cells): increased; endogenous hNIS mRNA levels ([7]; pharmacological inhibition of PARP-1 activity): stimulated
3 | ds-414: annealed double-stranded oligonucleotide 5′-ccttgttacagatggggaaactaaggccca-3′, −987 to −958 (SEQ ID NO.: 6) (sense CCTTGTTACAGATGGGGAAACTAAGGCCCA; annealed double-stranded unlabeled competitor, further chemistry not given here) |  |  |  | competition against radiolabeled Probe-A in EMSA [8]: strong competition
4 | CCCC(=O)[O-].[Na+] [sodium butyrate] | did not alter | restore | failed to demonstrate any effect | 
